Laboratory results as given in patent US20210261512A1, “NOVEL COMPOUNDS” (INFLAZOME LIMITED, priority 2018, published 2021).

Each molecule was assayed against NLRP3 (Homo sapiens, UniProt Q96P20) (assay: THP-1 cells pyroptosis assay). Conditions: LPS 1.0 μg/ml, nigericin 5 μM, resazurin readout, 10 μM top dose (Example 2: top dose of 30 μM).
Type: cell-based
Design: Seed THP-1 cells (25,000 cells/well) containing 1.0 μg/ml LPS; host or cells: THP-1
Outline: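 Pyroptosis induced by 5 μM nigericin (1 h) in LPS-primed (1 μg/ml) THP-1 cells, 25,000/well in serum-free RPMI, after 3 h compound pre-treatment (8 points, 10 μM top unless stated). Surviving cells measured with 100 μM resazurin, Ex 560/Em 590; IC50 via variable-slope 4-parameter regression.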

NLRP3, sequence (Q96P20 whole entry): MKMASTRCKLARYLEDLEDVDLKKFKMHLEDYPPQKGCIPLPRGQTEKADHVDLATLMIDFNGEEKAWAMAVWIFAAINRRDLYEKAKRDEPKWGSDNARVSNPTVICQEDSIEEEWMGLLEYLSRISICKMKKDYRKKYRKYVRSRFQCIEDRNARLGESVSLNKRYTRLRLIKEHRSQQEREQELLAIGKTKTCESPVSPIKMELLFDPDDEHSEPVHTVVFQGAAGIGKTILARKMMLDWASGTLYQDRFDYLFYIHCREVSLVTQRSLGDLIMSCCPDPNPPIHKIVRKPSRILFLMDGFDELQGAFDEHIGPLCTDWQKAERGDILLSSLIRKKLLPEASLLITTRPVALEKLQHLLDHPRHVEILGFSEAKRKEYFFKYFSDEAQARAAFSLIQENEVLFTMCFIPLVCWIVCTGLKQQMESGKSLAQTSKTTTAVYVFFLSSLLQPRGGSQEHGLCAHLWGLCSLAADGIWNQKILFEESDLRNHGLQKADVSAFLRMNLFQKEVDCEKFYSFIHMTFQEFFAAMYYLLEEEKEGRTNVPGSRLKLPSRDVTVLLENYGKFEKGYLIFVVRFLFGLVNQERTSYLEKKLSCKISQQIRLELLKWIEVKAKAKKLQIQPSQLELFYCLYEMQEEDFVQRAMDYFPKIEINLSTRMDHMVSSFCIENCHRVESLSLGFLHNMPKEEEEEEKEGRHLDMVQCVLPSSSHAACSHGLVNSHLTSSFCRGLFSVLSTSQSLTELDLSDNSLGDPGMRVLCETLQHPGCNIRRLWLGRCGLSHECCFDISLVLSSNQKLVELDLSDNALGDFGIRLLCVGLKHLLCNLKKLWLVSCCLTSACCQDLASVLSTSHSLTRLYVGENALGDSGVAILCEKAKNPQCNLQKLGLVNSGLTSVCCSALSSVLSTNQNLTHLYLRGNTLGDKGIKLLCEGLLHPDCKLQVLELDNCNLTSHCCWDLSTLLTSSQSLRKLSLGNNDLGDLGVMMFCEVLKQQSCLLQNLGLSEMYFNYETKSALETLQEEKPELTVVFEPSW

| IC50 [µM] | SMILES |
| --- | --- |
| ≤ 10 | CC(C)CCNS(=O)(=O)c1nnc(Nc2c3c(cc4c2CCC4)CCC3)[nH]1 [Example 82, 5-((1,2,3,5,6,7-hexahydro-s-indacen-4-yl)amino)-N-isopentyl-1H-1,2,4-triazole-3-sulfonamide] |
| ≤ 5 | COc1cc(-c2ccc3c(c2Cc2nnc(S(=O)(=O)N4CCC(CN(C)C)C4)[nH]2)CCC3)ccn1 (stereo not shown) [Example 160, 1-(1-((5-((5-(2-methoxypyridin-4-yl)-2,3-dihydro-1H-inden-4-yl)-methyl)-4H-1,2,4-triazol-3-yl)sulfonyl)pyrrolidin-3-yl)-N,N-dimethylmethanamine] |
| ≤ 5 | CC(C)c1cc(F)cc(-c2ccnc(OC3CCN(C)CC3)c2)c1Nc1nnc(S(C)(=O)=O)[nH]1 [Example 369, N-(4-fluoro-2-isopropyl-6-(2-((1-methylpiperidin-4-yl)oxy)pyridin-4-yl)phenyl)-5-(methylsulfonyl)-4H-1,2,4-triazol-3-amine] |
| ≤ 5 | CC(C)(O)Cn1cc(S(=O)(=O)c2nnc(Nc3c4c(cc5c3CCC5)CCC4)[nH]2)cn1 [Example 336, 1-(4-((5-((1,2,3,5,6,7-hexahydro-s-indacen-4-yl)amino)-4H-1,2,4-triazol-3-yl)sulfonyl)-1H-pyrazol-1-yl)-2-methylpropan-2-ol] |
| ≤ 5 | CN1CC2CCN(S(=O)(=O)c3nnc(Nc4c5c(cc6c4CCC6)CCC5)[nH]3)C2C1 (stereo not shown) [Example 142, N-(1,2,3,5,6,7-hexahydro-s-indacen-4-yl)-5-((5-methylhexahydropyrrolo[3,4-b]pyrrol-1 (2H)-yl)sulfonyl)-4H-1,2,4-triazol-3-amine] |
| ≤ 5 | O=c1cccc(CNS(=O)(=O)c2nnc(Nc3c4c(cc5c3CCC5)CCC4)[nH]2)[nH]1 [Example 103, 5-((1,2,3,5,6,7-hexahydro-s-indacen-4-yl)amino)-N-((6-oxo-1,6-dihydropyridin-2-yl)methyl)-4H-1,2,4-triazole-3-sulfonamide] |
| ≤ 10 | O=S(=O)(c1nnc(Nc2c3c(cc4c2CCC4)CCC3)[nH]1)C1CNC1 [Example 21, 5-(azetidin-3-ylsulfonyl)-N-(1,2,3,5,6,7-hexahydro-s-indacen-4-yl)-4H-1,2,4-triazol-3-amine] |
| ≤ 5 | CN1CC2(CCN(S(=O)(=O)c3nnc(Nc4c5c(cc6c4CCC6)CCC5)[nH]3)CC2)C1 [Example 280, N-(1,2,3,5,6,7-hexahydro-s-indacen-4-yl)-5-((2-methyl-2,7-diazaspiro[3.5]nonan-7-yl)sulfonyl)-4H-1,2,4-triazol-3-amine] |
| ≤ 10 | O=S(=O)(Cc1ccncc1)c1nnc(Nc2c3c(cc4c2CCC4)CCC3)[nH]1 [Example 72, N-(1,2,3,5,6,7-hexahydro-s-indacen-4-yl)-3-((pyridin-4-ylmethyl)sulfonyl)-1H-1,2,4-triazol-5-amine] |
| ≤ 5 | COc1cc(-c2cc(F)cc(C(C)C)c2Oc2nnc(S(=O)(=O)N3CCC(N(C)C)CC3)[nH]2)ccn1 [Example 253, 1-((5-(4-fluoro-2-isopropyl-6-(2-methoxypyridin-4-yl)phenoxy)-4H-1,2,4-triazol-3-yl)sulfonyl)-N,N-dimethylpiperidin-4-amine] |
| ≤ 10 | O=S(=O)(c1nnc(Nc2c3c(cc4c2CCC4)CCC3)[nH]1)N1CC[C@H](CO)C1 [Example 284, (S)-(1-((5-((1,2,3,5,6,7-hexahydro-s-indacen-4-yl)amino)-4H-1,2,4-triazol-3-yl)sulfonyl)pyrrolidin-3-yl)methanol] |
| ≤ 5 | CN(C)S(=O)(=O)c1nnc(Nc2c3c(cc4c2CCC4)CCC3)[nH]1 [Example 262, 5-((1,2,3,5,6,7-hexahydro-s-indacen-4-yl)amino)-N,N-dimethyl-4H-1,2,4-triazole-3-sulfonamide] |
| ≤ 5 | CN(C)C1CCN(S(=O)(=O)c2nnc(Nc3c(-c4cnn(C)c4)ccc4c3CCC4)[nH]2)CC1 [Example 207, N,N-dimethyl-1-((5-((5-(1-methyl-1H-pyrazol-4-yl)-2,3-dihydro-1H-inden-4-yl)amino)-4H-1,2,4-triazol-3-yl)sulfonyl)piperidin-4-amine] |
